Experimental findings from US20120270237A9, “METHODS FOR THE IDENTIFICATION OF KINASE INTERACTING MOLECULES AND FOR THE PURIFICATION OF KINASE PROTEINS” (Cellzone AG, priority 2009, published 2012) are described below.

The structures appear in SMILES notation.

What all share (test): Kinobeads competition binding, L-363 cell lysate
Settings in all cases: 10 μM free compound, L-363 lysate

Assay [1] concerns the target BIKE (Homo sapiens, UniProt Q9NSY1). On the set-up: endogenous in cells. Here is the method:
(§1) To one aliquot of cell lysate 10 μM of the free compound (FIG. 3, CZC31326) was added and allowed to bind to proteins in the lysate. Then the affinity matrix with the immobilized compound was added to capture proteins that were not interacting with the previously added free compound. Beads were separated from the lysate and bead bound proteins were eluted in SDS sample buffer and subsequently separated by SDS-Polyacrylamide gel electrophoresis (FIG. 8). Suitable gel bands were cut out and subjected to in-gel proteolytic digestion with trypsin. The second lysate aliquot was processed identically, however no free compound was added (DMSO solvent control). Peptides originating from samples 1 and 2 were labeled with iTRAQ reagents (iTRAQ 114 and iTRAQ 117) and the combined samples were analyzed with a nano-flow liquid chromatography system coupled online to a tandem mass spectrometer (LC-MS/MS) experiment followed by iTRAQ reporter ion quantification in the MS/MS spectra as described in Example 2.
(§2) For this experiment the human plasma cell leukaemia line L-363 was used (German Collection of Microorganisms and Cell Cultures, DSMZ number ACC49, Braunschweig, Germany). Cells were treated for three hours with 20 μM of the proteasome inhibitor MG132 (Z-Leu-Leu-Leu-al, Sigma C2211) prior to cell harvesting.

Assay [2] has as its target CDK5 (Homo sapiens, UniProt Q00535). The arrangement: endogenous in cells. Here is the method:
as §1, §2

Assay [3] has as its target CK2a2 (Homo sapiens, UniProt P19784). On the set-up: endogenous in cells. Here is the method: as §1, §2
For assay [4], the target named is GSK3B (Homo sapiens, UniProt P49841). The arrangement: endogenous in cells. Here is the method:
as §1, §2

Assay [5] concerns the target HIPK2 (Homo sapiens, UniProt Q9H2X6). The arrangement: endogenous in cells. Here is the method:
as §1, §2

Assay [6] deals with IRAK1 (Homo sapiens, UniProt P51617). The arrangement: endogenous in cells. Here is the method: as §1, §2
Assay [7] addresses JNK1 (Homo sapiens, UniProt P45983). On the set-up: endogenous in cells. Here is the method:
as §1, §2

The target of assay [8] is T1, MAP3K5 (Homo sapiens, UniProt Q99683).
T1 sequence (Q99683 1-1374): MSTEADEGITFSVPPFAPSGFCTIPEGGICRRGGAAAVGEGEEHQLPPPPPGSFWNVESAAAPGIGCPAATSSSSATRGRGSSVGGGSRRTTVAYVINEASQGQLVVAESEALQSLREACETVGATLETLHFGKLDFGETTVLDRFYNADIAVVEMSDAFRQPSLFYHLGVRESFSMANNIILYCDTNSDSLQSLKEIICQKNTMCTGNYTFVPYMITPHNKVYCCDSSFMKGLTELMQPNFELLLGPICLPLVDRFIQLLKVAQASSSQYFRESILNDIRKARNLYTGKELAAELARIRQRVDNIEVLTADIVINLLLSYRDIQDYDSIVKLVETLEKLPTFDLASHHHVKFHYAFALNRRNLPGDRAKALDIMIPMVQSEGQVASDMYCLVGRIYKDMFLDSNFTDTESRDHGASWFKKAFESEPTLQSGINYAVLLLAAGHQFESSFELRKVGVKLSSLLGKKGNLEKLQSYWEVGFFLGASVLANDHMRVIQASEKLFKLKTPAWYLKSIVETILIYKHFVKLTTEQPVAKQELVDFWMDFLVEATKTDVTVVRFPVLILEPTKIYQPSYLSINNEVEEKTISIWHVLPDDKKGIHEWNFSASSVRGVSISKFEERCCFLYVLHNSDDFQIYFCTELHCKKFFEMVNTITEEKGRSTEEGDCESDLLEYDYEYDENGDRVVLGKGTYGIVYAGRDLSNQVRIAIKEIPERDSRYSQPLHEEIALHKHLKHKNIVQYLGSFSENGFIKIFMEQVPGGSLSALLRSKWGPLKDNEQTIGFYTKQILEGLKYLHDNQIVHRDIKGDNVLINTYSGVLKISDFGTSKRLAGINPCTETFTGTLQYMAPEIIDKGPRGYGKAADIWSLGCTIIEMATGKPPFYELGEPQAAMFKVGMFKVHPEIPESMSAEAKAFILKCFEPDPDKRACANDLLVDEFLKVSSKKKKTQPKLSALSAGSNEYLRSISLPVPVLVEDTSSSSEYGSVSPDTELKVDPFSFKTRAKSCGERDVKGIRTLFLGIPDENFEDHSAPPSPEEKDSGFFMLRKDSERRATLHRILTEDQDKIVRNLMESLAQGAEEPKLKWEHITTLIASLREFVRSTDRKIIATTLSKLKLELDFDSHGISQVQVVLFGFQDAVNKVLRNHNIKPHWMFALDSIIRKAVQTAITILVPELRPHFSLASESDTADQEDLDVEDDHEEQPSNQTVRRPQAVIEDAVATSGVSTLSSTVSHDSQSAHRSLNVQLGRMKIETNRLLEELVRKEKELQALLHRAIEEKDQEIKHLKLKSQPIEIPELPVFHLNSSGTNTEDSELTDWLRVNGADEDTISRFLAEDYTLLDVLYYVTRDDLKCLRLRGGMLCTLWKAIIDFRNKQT
The arrangement: endogenous in cells. Here is the method: as §1, §2

For assay [9], the target named is MARK2 (Homo sapiens, UniProt Q7KZI7). On the set-up: endogenous in cells. Here is the method: as §1, §2
The target in assay [10] is PYK2 (Homo sapiens, UniProt Q14289). On the set-up: endogenous in cells. Here is the method:
as §1, §2

The target in assay [11] is QIK (Homo sapiens, UniProt Q9H0K1). The arrangement: endogenous in cells. Here is the method:
as §1, §2

For assay [12], the target named is AAK1 (Homo sapiens, UniProt Q2M2I8). On the set-up: capturing and identification of kinases from L-363 cell lysate; endogenous in cells; host or cells: L-363 cells, treated with MG132 before harvest. Here is the method:
as §1, §2

Assay [13] addresses BTK (Homo sapiens, UniProt Q06187). The arrangement: capturing and identification of kinases from L-363 cell lysate; endogenous in cells; host or cells: L-363 cells, treated with MG132 before harvest. Here is the method:
as §1, §2

`CS(=O)(=O)Nc1ccccc1Nc1nc(Nc2cccc(OCCN)c2)ncc1Cl` [CZC31326, N-(2-(2-(3-(2-aminoethoxy)phenylamino)-5-chloropyrimidin-4-ylamino)phenyl)methanesulfonamide]: the inhibition at 10 µM in assay [1] came to 97%; in assay [2], 96.4%; in assay [3], 97.5%; in assay [4] it was 94.6%; in [5], 95.6%; in assay [6], 95.1%. In addition, the inhibition at 10 µM in assay [8] came out at 91.3%; in assay [9], 97%; in assay [10], 96.1%; in assay [11] it was 96.5%; in [12], 97.4%. Further, the Competition % in assay [7] stood at 87%; in assay [13] it was 95.7%.

As a reminder, the inhibition is the percentage by which the read-out fell short of the control. Read a low inhibition as a response near the control.
